BigSolDB 2.1

C=CC(=O)N1CCC[C@@H](n2nc(-c3ccc(Oc4ccccc4)cc3)c3c(N)ncnc32)C1
solubility (mole fraction)
Conditions | 278.15 K | 283.15 K | 288.15 K | 293.15 K | 298.15 K | 303.15 K | 308.15 K | 313.15 K | 318.15 K | 323.15 K
in 2-butanone | 0.00549 | 0.00628 | 0.00726 | 0.00855 | 0.00988 | 0.0114 | 0.0132 | 0.0155 | 0.0181 | 0.0211
in MTBE | 0.000225 | 0.000244 | 0.000277 | 0.000305 | 0.000331 | 0.00037 | 0.000404 | 0.000454 | 0.000497 | 0.00056
in acetone | 0.00362 | 0.00417 | 0.00487 | 0.00573 | 0.00673 | 0.00794 | 0.00921 | 0.0108 | 0.0125 | 0.0144
in acetonitrile | 0.000672 | 0.000819 | 0.000962 | 0.00122 | 0.00143 | 0.00174 | 0.0021 | 0.00256 | 0.00314 | 0.00367
in ethyl acetate | 0.00312 | 0.00357 | 0.00403 | 0.00475 | 0.00548 | 0.00618 | 0.00722 | 0.0083 | 0.00952 | 0.0107
in isopropanol | 0.000409 | 0.000547 | 0.000734 | 0.000947 | 0.00123 | 0.00165 | 0.00217 | 0.00278 | 0.00363 | 0.00455
in n-butanol | 0.00127 | 0.00163 | 0.00206 | 0.00261 | 0.00331 | 0.00423 | 0.0054 | 0.00694 | 0.00894 | 0.0115
